The text below walks through data of patent US20140295045A1, “Pyridine Derivatives With Umami Flavour” (Givaudan S.A., priority 2009, published 2014).

What all share (type): in vivo, human
Assay [1] deals with trained sensory panel. As to the kind of experiment: Testing of compounds: tasting of 0.3% NaCl solution with 2 ppm compound by trained sensory panel. The conditions noted are these: 2 ppm compound in a solution of 0.3% NaCl; trained sensory panel of 20 women. The procedure:
Various compounds prepared in the previous examples were tested. Two solutions were prepared: A: a solution of 0.3% NaCl, B: a solution of 0.3% NaCl and 2 ppm compound as per Table 1. The samples were tasted by a trained sensory panel composed of 20 women aged between 30 and 60.

Assay [2] deals with bench-top tasting panel. Put plainly: Model chicken broth (no MSG added, 0.3% sugar added), blind umami ranking. The following applies: for Level preferred by panelists in this base: model chicken broth, 0.3% sugar added, % by weight. As to the method:
The following compositions are made and tested. Using a bench-top tasting panel (consisting of 10 panelists—flavorists, application experts), panelists were asked to record the sensory attribute differences (umami) between the samples. All samples were tasted blind and ranked on umami. Model Chicken Broth—no MSG Added, 0.3% Sugar Added The model chicken broth powder was prepared from 11.9 g chicken fat, 23.81 g salt, 14.29 g sugar, 0.95 g onion powder, 49.01 g chicken powder, 0.04 g turmeric powder. To prepare the model chicken broth 2.0 g of powder was mixed 98.0 g hot water.

In assay [3] the test system is bench-top tasting panel. Put plainly: Commercial organic chicken broth, blind umami ranking. The following applies: for Level preferred by panelists in this base: commercial organic chicken broth, % by weight. From the text: The following compositions are made and tested. Using a bench-top tasting panel (consisting of 10 panelists—flavorists, application experts), panelists were asked to record the sensory attribute differences (umami) between the samples. All samples were tasted blind and ranked on umami. Commercial Organic Chicken Broth (Swanson's Certified Organic Chicken Broth—No added MSG, contains about 0.4% sugars)

Assay [4] has as its system small group of flavourists. Put plainly: Tomato soup formulation tasting against reference soup. The conditions noted are these: 1.5 ppm compound in tomato soup containing MSG; 4 flavourists. The procedure: A tomato soup mix was prepared from 9.4 g sodium chloride, 1 g MSG, 0.08 g ribonucleotides (ex yeast), 32 g tomato powder (ex Spreda), 25.1 g glucose, 21 g starch (Ultrasperse™ 5 ex National Starch), 5 g palm fat powder, 3 g yeast powder, 1 g onion powder, 0.15 g carrot powder, 0.05 g ground white pepper, 0.3 g celery extract powder, 0.05 g ground laurel leaf powder, and 1.85 g sucrose. 25 g of the well-mixed ingredients was added to 250 g of boiling water and stirred until completely dissolved, to give a reference soup.
The reference soup was compared with a batch of the same soup containing 1.5 ppm of 1-(2-hydroxy-4-isobutoxyphenyl)-3-(pyridine-2-yl)propan-1-one.

For assay [5], the system named is bench-top tasting panel. As to the kind of experiment: Model chicken broth (no MSG added, no sugar added), blind umami ranking. The following applies: for Level preferred by panelists in this base: model chicken broth, no MSG added, % by weight. As to the method: The following compositions are made and tested. Using a bench-top tasting panel (consisting of 10 panelists—flavorists, application experts), panelists were asked to record the sensory attribute differences (umami) between the samples. All samples were tasted blind and ranked on umami. Model Chicken Broth—no MSG Added, no Sugar Added The model chicken broth powder was prepared from 11.9 g chicken fat, 23.81 g salt, […], 0.95 g onion powder, 49.01 g chicken powder, 0.04 g turmeric powder. To prepare the model chicken broth 2.0 g of powder was mixed 98.0 g hot water.

Assay [6] has as its system small group of flavourists. Put plainly: Tomato ketchup tasting. The conditions noted are these: 2 ppm compound in tomato ketchup; 4 flavourists. As to the method:
A tomato ketchup was prepared from 19% tomato paste (28-30% dry weight), 8% vinegar (15%), 3% sodium chloride, 20% sugar and 50% water.
To one-half of the batch was added 2 ppm of 1-(2-hydroxy-4-methoxyphenyl)-3-(pyridin-2-yl)propan-1-one.

For assay [7], the system named is trained sensory panel. As to the kind of experiment: Potato chips tasting. The procedure: Plain potato chips were prepared.
One part was flavoured with 1.2% sodium chloride (sample A),
One part was flavoured with 1.2% sodium chloride and 0.3% MSG (sample B),
One part was flavoured with 1.2% sodium chloride and 2 ppm of 1-(2-hydroxy-4-methylphenyl)-3-(pyridin-2-yl)propan-1-one (sample C).
(§1) The samples were tasted by a trained sensory panel composed of 20 women aged between 30 and 60.

Assay [8] concerns trained sensory panel. Put plainly: Comparative test with MSG: tasting of 0.3% NaCl / 0.03% MSG solution with compound. The following applies: 5 ppm compound in 0.3% NaCl and 0.03% MSG; Solution A without compound: salty, umami. The procedure: Two solutions were prepared:
A: a solution of 0.3% NaCl and 0.03% MSG,
B: a solution of 0.3% NaCl, 0.03% MSG and 5 ppm of 1-(4-hydroxybenzo[d][1,3]dioxol-5-yl)-3-(pyridin-2-yl)propan-1-one.
as §1

Where [9] appears, read: 0.002% compound in model chicken broth, sugar added, Control 6th.
[10] abbreviates: 0.002% compound in commercial organic chicken broth, Control 5th.
[11] abbreviates: 0.001% compound in model chicken broth, Control 5th.

Structures are written as SMILES.

As to `Cc1cc(C)c(O)c(C(=O)CCc2ccccn2)c1` [1-(2-hydroxy-3,5-dimethylphenyl)3-(pyridine-2-yl)propan-1-one], the Taste description entry with trained sensory panel [1] is on record as “Umami”.

Regarding `Cc1cc(O)c(C(=O)CCc2ccccn2)cc1C` [1-(2-hydroxy-4,5-dimethylphenyl)-3-(pyridine-2-yl)propan-1-one], the Taste description entry with trained sensory panel [1] is recorded as “Umami, sweet, savoury, salty”. The “Performance when evaluating for umami” value with bench-top tasting panel [2] (0.002% compound in model chicken broth, sugar added) is “performed well”. In addition, in the assay with bench-top tasting panel [2] (setting [9]), the “Finishing position in blind ranking of 6 samples on umami” value (from here on “Finishing position in blind ranking”) is given as 2. In the assay on bench-top tasting panel [2], the “Level preferred by panelists in this base” value (from here on “Level preferred by panelists”) stood at 0.002%.

Take `CC(C)COc1ccc(C(=O)CCc2ccccn2)c(O)c1` [1-(2-hydroxy-4-isobutoxyphenyl)-3-(pyridine-2-yl)propan-1-one]: in the assay with trained sensory panel [1], the Taste description result is “Umami, sweet, salty, bouillon, lingering,”. In addition, the “Finishing position in blind ranking” value in the assay on bench-top tasting panel [3] (setting [10]) was 3; with bench-top tasting panel [2] (setting [9]) it was 4; with bench-top tasting panel [5] (setting [11]) it was 4. For the same compound, the “Level preferred by panelists” value is 0.002% in the assay on bench-top tasting panel [3], 0.002% in the assay with bench-top tasting panel [2] and 0.001% with bench-top tasting panel [5]. In assay [4], the “Taste of test soup compared with reference soup” value was “more umami, had a clear lingering effect, was more salty and was more complex”.

On to `COc1ccc(C(=O)CCc2ccccn2)c(O)c1` [1-(2-hydroxy-4-methoxyphenyl)-3-(pyridin-2-yl)propan-1-one], for which the Taste description entry with trained sensory panel [1] was “umami, sweet, salty, longlasting”. The “Finishing position in blind ranking” value in the assay on bench-top tasting panel [3] (setting [10]) worked out at 4; in the assay with bench-top tasting panel [2] (setting [9]) it was 3; with bench-top tasting panel [5] (setting [11]) it was 2. Further, the “Level preferred by panelists” value in the assay on bench-top tasting panel [3] is reported as 0.002%; with bench-top tasting panel [2], 0.002%; in the assay on bench-top tasting panel [5], 0.001%. Moreover, the “Taste of test ketchup compared with ketchup without the compound” value in assay [6] was “clearly more umami, more salty and had a pleasant savoury note”.

For `Cc1ccc(C(=O)CCc2ccccn2)c(O)c1` [1-(2-hydroxy-4-methylphenyl)-3-(pyridin-2-yl)propan-1-one], the Taste description entry in the assay on trained sensory panel [1] is recorded as “Umami, sweet, licorice, savoury”. In addition, the “Finishing position in blind ranking” value amounted to 2 with bench-top tasting panel [3] (0.001% compound in commercial organic chicken broth, Control 5th); 5 in the assay on bench-top tasting panel [2] (0.001% compound in model chicken broth, sugar added, Control 6th); 3 in the assay with bench-top tasting panel [5] (0.0005% compound in model chicken broth, Control 5th). The “Level preferred by panelists” value was found to be 0.001% with bench-top tasting panel [3], 0.001% with bench-top tasting panel [2] and 0.0005% in the assay with bench-top tasting panel [5]. For the same compound, in the assay with trained sensory panel [7] (potato chips with 1.2% sodium chloride and 2 ppm compound, sample A with salt only: salty), the “Taste description (sample C)” value is on record as “salty, strong umami, long lasting, savoury, bouillon”. Further, in the assay on trained sensory panel [7] (potato chips, sample C (1.2% sodium chloride, 2 ppm compound) versus sample A (salt) and sample B (salt, 0.3% MSG)), the Panel preference entry is listed as “preferred sample C over the other two samples”.

With `Cc1ccc(O)c(C(=O)CCc2ccccn2)c1` [1-(2-hydroxy-5-methylphenyl)-3-(pyridine-2-yl)propan-1-one], the Taste description entry with trained sensory panel [1] is given as “Umami”.

As to `Cc1cccnc1CCC(=O)c1ccccc1O` [1-(2-hydroxyphenyl)-3-(3-methylpyridin-2-yl)propan-1-one], the Taste description result in the assay with trained sensory panel [1] was “Slightly umami, savoury, meaty”.

For `Cc1ccc(CCC(=O)c2ccccc2O)nc1` [1-(2-hydroxyphenyl)-3-(5-methylpyridin-2-yl)propan-1-one], the Taste description entry in the assay with trained sensory panel [1] is “Slightly umami, some green aftertaste,”.

On to `COc1ccccc1C(=O)CCc1ccccn1` [1-(2-methoxyphenyl)-3-(pyridin-2-yl)propan-1-one], for which the Taste description entry with trained sensory panel [1] is “Umami, slightly bitter”.

Regarding `O=C(CCc1ccccn1)c1ccc(OC2CCCC2)cc1O` [1-(4-(cyclopentyloxy)-2-hydroxyphenyl)-3-(pyridine-2-yl)propan-1-one], in the assay with trained sensory panel [1], the Taste description entry was “Umami”.

`O=C(CCc1ccccn1)c1ccc(OCC2CC2)cc1O` [1-(4-cyclopropylmethoxy)-2-hydroxyphenyl)-3-(pyridine-2-yl)propan-1-one]: in the assay with trained sensory panel [1], the Taste description entry was “Umami”.

With `CCOc1ccc(C(=O)CCc2ccccn2)c(O)c1` [1-(4-ethoxy-2-hydroxyphenyl)-3-(pyridine-2-yl)propan-1-one], the Taste description entry with trained sensory panel [1] is “Umami, floral”.

Regarding `O=C(CCc1ccccn1)c1ccc2c(c1O)OCO2` [1-(4-hydroxybenzo[d][1,3]dioxol-5-yl)-3-(pyridin-2-yl)propan-1-one], in the assay with trained sensory panel [1], the Taste description result is “Clearly umami, slightly yeasty, bouillon”. In addition, in the assay with trained sensory panel [8], the “Taste description (Solution B)” value is reported as “salty, umami, more bouillon-like, more complex, less sweet”.

In the case of `CCc1ccc(O)c(C(=O)CCc2ccccn2)c1` [1-(5-ethyl-2-hydroxyphenyl)-3-(pyridine-2-yl)propan-1-one], the Taste description entry with trained sensory panel [1] is “Umami, slightly bitter”.

For the compound `N[C@@H](CCC(=O)O)C(=O)[O-].[Na+]` [MSG, monosodium glutamate, reference compound], the “Finishing position in blind ranking” value in the assay with bench-top tasting panel [3] (0.05% MSG (Reference) in commercial organic chicken broth) was “highest umami”; in the assay with bench-top tasting panel [2] (0.05% MSG (Reference) in model chicken broth, sugar added), “highest umami”; in the assay on bench-top tasting panel [5] (0.05% MSG (Reference) in model chicken broth), “highest umami”. Also, the “Taste description (sample B)” value in the assay on trained sensory panel [7] (potato chips with 1.2% sodium chloride and 0.3% MSG) is “salty and umami”.
